According to patent US4684622A, “Compositions and methods for producing vasodilation and antioxytocic activity” (SmithKline Beckman Corporation, priority 1986, dated 1987):
Numbered stars: 1 amine (or outer) side, 2 acyl side, 3 side chain; on linkers, the order of the positions; unused ones are H or OH. Bridge positions count the residues as written; N and C are the ends. Square brackets hold non-standard residues; d marks the D form. Peptide text beside a SMILES is read from it. X2 = O=C(CC1(S[*:2])CCCCC1)[*:1]; X1 = CC(C)(CC(=O)[*:1])S[*:2]; Mpa = O=C(O)CCS

What was measured:
[1] = target: T1, V1-vasopressin receptors (Rattus norvegicus, UniProt P30560); experiment: reversal of vasopressin-induced contraction of rat thoracic aorta tissue; format: cell-based; settings: rat aortic ring tissue
T1 construct: Rat aortic ring tissue; from tissue; host or cells: rat thoracic aorta rings
Method: (§1) Antagonistic activity of the V1 -vasopressin receptors is determined in a protocol which measures the reversal of the vasopressin-induced contraction of rat thoracic aorta tissue. This is expressed as KB (nM) in the table below. Such anti-pressor activity is confirmed in a similar in vitro protocol using the plasma membranes of rat liver. V2 -vasopressin antagonism is determined as receptor binding ability measured by inhibition of 3H-LVP binding (KB as nM), by inhibition of adenylate cyclase activation by vasopressin in the medullary tissue of hog kidneys (Ki as nM) or in vivo in the hydropenic rat protocol (ED300 μg/kg). These procedures are described in the literature: F. Stassen et al., J. Pharmacology and Experimental Therapeutics, 223 50 (1982); F. Stassen et al., 1st International Conference on Diuretics, Miami, Fla., March (1984). Antagonistic activity at oxytocin receptors is determined in the isolated rat uterus protocol: W. Sawyer, et al., Endocrinology 106 81 (1979); P. Melin, et al., J. of Endocrinology 88 173 (1981).
^c Rat aortic ring tissue, […]

[2] = target: T2, V2-vasopressin receptors (Rattus norvegicus, UniProt Q00788); experiment: hydropenic rat protocol in vivo
T2 construct: Hydropenic rat; from tissue; host or cells: whole animal (hydropenic rat)
Method: as §1

[3] = target: T3, V2-vasopressin receptors (Sus scrofa, UniProt P32307); experiment: inhibition of 3H-LVP binding, medullary pig kidney tissue
T3 construct: Medullary pig kidney tissue; from tissue; host or cells: pig (hog) kidney medulla
Method: as §1
(§2) ^a Medullary pig kidney tissue, […]

[4] = target: T1, V1-vasopressin receptors; experiment: in vitro protocol using plasma membranes of rat liver; format: binding; settings: rat liver membrane
Method: as §1

[5] = target: T4, oxytocin receptors (Rattus norvegicus, UniProt P70536); experiment: isolated rat uterus protocol; format: cell-based; settings: read-out: Rat OXT KB
T4 construct: Rat uterus; from tissue; host or cells: isolated rat uterus
T4 sequence (P70536 1-388): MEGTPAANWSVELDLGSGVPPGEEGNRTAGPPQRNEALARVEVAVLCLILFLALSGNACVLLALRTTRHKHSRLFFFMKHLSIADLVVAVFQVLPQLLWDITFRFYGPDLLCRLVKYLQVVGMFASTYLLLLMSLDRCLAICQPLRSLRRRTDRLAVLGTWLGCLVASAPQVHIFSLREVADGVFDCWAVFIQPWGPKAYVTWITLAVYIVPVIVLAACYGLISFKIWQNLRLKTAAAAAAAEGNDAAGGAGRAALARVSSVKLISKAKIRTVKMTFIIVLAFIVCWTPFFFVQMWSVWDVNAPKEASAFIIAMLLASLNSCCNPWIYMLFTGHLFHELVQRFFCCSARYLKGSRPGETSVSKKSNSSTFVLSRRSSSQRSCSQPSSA
Method: as §1

[6] = target: T3, V2-vasopressin receptors; experiment: inhibition of adenylate cyclase activation by vasopressin, medullary pig kidney tissue; format: biochemical
Method: as §1, §2

T3 sequence (P32307 whole entry): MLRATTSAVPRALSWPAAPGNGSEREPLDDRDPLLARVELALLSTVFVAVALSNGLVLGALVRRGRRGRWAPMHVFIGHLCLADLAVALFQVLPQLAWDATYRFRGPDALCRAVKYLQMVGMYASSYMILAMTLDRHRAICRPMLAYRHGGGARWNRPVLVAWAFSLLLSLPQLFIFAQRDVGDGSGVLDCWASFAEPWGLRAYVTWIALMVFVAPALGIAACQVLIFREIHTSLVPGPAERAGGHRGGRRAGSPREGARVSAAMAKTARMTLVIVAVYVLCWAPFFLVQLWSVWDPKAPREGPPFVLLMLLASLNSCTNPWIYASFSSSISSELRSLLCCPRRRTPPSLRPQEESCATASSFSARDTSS
T1 sequence (P30560 whole entry): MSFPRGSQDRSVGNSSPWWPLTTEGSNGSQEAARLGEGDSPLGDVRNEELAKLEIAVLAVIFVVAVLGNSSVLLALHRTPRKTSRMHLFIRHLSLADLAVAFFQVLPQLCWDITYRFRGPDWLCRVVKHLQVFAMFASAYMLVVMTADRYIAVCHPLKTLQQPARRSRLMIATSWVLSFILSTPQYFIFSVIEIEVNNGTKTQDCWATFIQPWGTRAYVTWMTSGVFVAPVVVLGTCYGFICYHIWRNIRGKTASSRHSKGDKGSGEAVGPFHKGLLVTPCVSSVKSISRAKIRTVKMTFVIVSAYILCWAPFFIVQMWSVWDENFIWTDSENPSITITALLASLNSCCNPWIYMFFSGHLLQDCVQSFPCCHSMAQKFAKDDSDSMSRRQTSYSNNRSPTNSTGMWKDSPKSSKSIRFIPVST
T2 sequence (Q00788 whole entry): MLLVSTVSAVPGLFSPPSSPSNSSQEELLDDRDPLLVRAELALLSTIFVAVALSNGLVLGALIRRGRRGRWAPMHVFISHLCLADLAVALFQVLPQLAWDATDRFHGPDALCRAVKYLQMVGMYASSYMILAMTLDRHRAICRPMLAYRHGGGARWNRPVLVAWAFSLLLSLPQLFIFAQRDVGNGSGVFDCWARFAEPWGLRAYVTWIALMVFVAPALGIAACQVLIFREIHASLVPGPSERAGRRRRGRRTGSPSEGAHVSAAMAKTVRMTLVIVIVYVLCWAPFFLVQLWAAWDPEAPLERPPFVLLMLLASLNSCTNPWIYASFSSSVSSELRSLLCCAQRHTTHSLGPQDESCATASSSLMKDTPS

COc1ccc(C[C@@H]2NC(=O)CC(C)(C)SSC[C@@H](C(=O)N[C@@H](CCCNC(=N)N)C(N)=O)NC(=O)[C@H](CC(N)=O)NC(=O)[C@H](CCC(N)=O)NC(=O)[C@H](Cc3ccccc3)NC2=O)cc1 [A] (Y(Me)FQNCR-NH2; linker N-5 via X1)
Kb [1]: 5.69 nM | Rat V2 ED300 [2]: > 5.959 mg/kg | Kb [3]: 3000 nM | Kb [4]: 38 nM | Kb [5]: 32.6 nM

COc1ccc(C[C@@H]2NC(=O)CC(C)(C)SSC[C@@H](C(=O)N[C@@H](CCCNC(=N)N)C(=O)NCC(N)=O)NC(=O)[C@H](CC(N)=O)NC(=O)[C@H](CCC(N)=O)NC(=O)[C@H](Cc3ccccc3)NC2=O)cc1 [B] (Y(Me)FQNCRG-NH2; linker N-5 via X1)
Kb [1]: 1.48 nM | Rat V2 ED300 [2]: > 5.977 mg/kg | Kb [3]: 3300 nM | Kb [4]: 37 nM | Kb [5]: 18.9 nM

CCOc1ccc(C[C@H]2NC(=O)CC(C)(C)SSC[C@@H](C(=O)N[C@@H](CCCNC(=N)N)C(N)=O)NC(=O)[C@H](CC(N)=O)NC(=O)[C@H](CCC(N)=O)NC(=O)[C@H](Cc3ccccc3)NC2=O)cc1 [C] ([dY](Et)FQNCR-NH2; linker N-5 via X1)
Kb ([1]; estimated, compound noncompetitive): 0.0072 nM | Kb [3]: 350 nM | Kb [5]: 1.88 nM

CCOc1ccc(C[C@H]2NC(=O)CCSSC[C@@H](C(=O)N[C@@H](CCCNC(=N)N)C(N)=O)NC(=O)[C@H](CC(N)=O)NC(=O)[C@H]([C@@H](C)O)NC(=O)[C@H]([C@@H](C)CC)NC2=O)cc1 [D] ([Mpa][dY](Et)ITNCR-NH2; disulfide 1-6)
Kb [3]: 1600 nM | Kb [5]: 11.4 nM

CCOc1ccc(C[C@H]2NC(=O)CCSSC[C@@H](C(=O)N[C@@H](CCCNC(=N)N)C(=O)NCC(N)=O)NC(=O)[C@H](CC(N)=O)NC(=O)[C@H]([C@@H](C)O)NC(=O)[C@H]([C@@H](C)CC)NC2=O)cc1 [E] ([Mpa][dY](Et)ITNCRG-NH2; disulfide 1-6)
Kb [3]: 4100 nM | Kb [5]: 17.7 nM

COc1ccc(C[C@@H]2NC(=O)CC(C)(C)SSC[C@@H](C(=O)N3CCC[C@H]3C(=O)N[C@@H](CCCNC(=N)N)C(=O)NCC(N)=O)NC(=O)[C@H](CC(N)=O)NC(=O)[C@H](CCC(N)=O)NC(=O)[C@H](Cc3ccccc3)NC2=O)cc1 [F] (Y(Me)FQNCPRG-NH2; linker N-5 via X1)
Pig V2 Ki [6]: agonist | Kb [3]: 70 nM | Kb [4]: 2.9 nM

COc1ccc(C[C@@H]2NC(=O)CC3(CCCCC3)SSC[C@@H](C(=O)N3CCC[C@H]3C(=O)N[C@@H](CCCN=C(N)N)C(=O)NCC(N)=O)NC(=O)[C@H](CC(N)=O)NC(=O)[C@H](CCC(N)=O)NC(=O)[C@H](Cc3ccccc3)NC2=O)cc1 [G] (Y(Me)FQNCPRG-NH2; linker N-5 via X2)
Ki [6]: 210 nM | Kb [1]: 0.026 nM | Kb [3]: 369 nM | Kb [4]: 0.48 nM
